Data on eight compounds can be found in patent publication US4483868A, “Gastro-protecting activity” (Roussel Uclaf, priority 1980, dated 1984).

The subject of series [1] is ulcers in rats at the stomach level. The series can be described thus: Anti-ulcer activity, Shay method (pylorus ligature in rats). It is filed as in vivo. As to conditions: oral, about 16 hours after treatment. The source says: (1) Determination of Anti-Ulcer Activity
The method used is described by SHAY et al. in Gastroenterology, 5, 43 (1945).
The Shay method consists of inducing ulcers in rats at the stomach level by ligature of the pylorus.
The animals are anesthetized with ether. A longitudinal incision is made about 1 cm below the sternum, the glandular part of the stomach and the duodenum are exposed, and a ligature is placed several mm below the pylorus. The muscular sheet is left as it is, and the skin is sutured with two clips.
As soon as possible afterwards, the animals receive the dispersive or the substance to be studied via the mouth in a volume of 0.5 ml/100 g and are kept without food or drink until sacrificed by carotid bleeding, which takes place about 16 hours after the treatment.
Before removing the stomach, a ligature is placed above the cardia.
The gastric liquid is collected in order to measure the pH.
The stomach is then opened along the major curvature, rinsed with physiological serum, and spread out on millimeter paper to be examined under a binocular magnifier.
The severity of the lesions is evaluated macroscopically and graded from 0 to 4 for each stomach.
The mean intensity of ulcerations is determined for each group of rats, and the protection is calculated by taking the ratio of the mean index of the treated group to the mean index of the control group.
The value of the gastric pH for the treated and control animals are likewise determined.

Series [2] in a line: Determination of acute toxicity (LD50, oral, mice). The note with it: mouse, in vivo, oral administration. The method, then: (2) Determination of Acute Toxicity
The lethal dose, LD50, of the compounds of Examples 1-8 was evaluated in mice after oral administration.

The mark [3] stands for this setting: Rattus norvegicus, 0.8 mg/kg, read-out: Ulcerations % of protection with respect to controls.
Where [4] appears, read: Rattus norvegicus, 4 mg/kg, read-out: Ulcerations % of protection with respect to controls.
The mark [5] stands for this setting: Rattus norvegicus, 20 mg/kg, read-out: Ulcerations % of protection with respect to controls.
The mark [6] stands for this setting: Rattus norvegicus, 0.4 mg/kg, read-out: Ulcerations % of protection with respect to controls.
The mark [7] stands for this setting: Rattus norvegicus, 2 mg/kg, read-out: Ulcerations % of protection with respect to controls.
Where [8] appears, read: Rattus norvegicus, 10 mg/kg, read-out: Ulcerations % of protection with respect to controls.
The mark [9] stands for this setting: Rattus norvegicus, 50 mg/kg, read-out: Ulcerations % of protection with respect to controls.

In the case of `COc1ccc(C(=O)/C=C/C(=O)O)cc1OC` [Example 1, (E) 4-(3,4-dimethoxyphenyl)-4-oxo-2-butenoic acid], the inhibition in vivo at 0.8 mg/kg in series [1] (setting [3]) is 0%. For the same compound, the inhibition in vivo at 4 mg/kg in series [1] (setting [4]) is 83%. In series [1] (setting [5]), the inhibition in vivo at 20 mg/kg was 100%. Besides, the “pH of gastric liquid, treated animals” value was determined as 2.9 in series [1] (0.8 mg/kg), 2.6 in series [1] (4 mg/kg) and 4.3 in series [1] (20 mg/kg). Further, the LD50 (usually the dose expected to kill half of the subjects tested) in series [2] is around 500 mg/kg.
In the case of `O=C(O)/C=C/C(=O)c1ccc(Cl)cc1` [Example 2, (E) 4-(4-chlorophenyl)-4-oxo-2-butenoic acid], the inhibition in vivo at 1 mg/kg in series [1] (Rattus norvegicus, 1 mg/kg, read-out: Ulcerations % of protection with respect to controls) is 0%. Besides, the inhibition in vivo at 5 mg/kg in series [1] (Rattus norvegicus, 5 mg/kg, read-out: Ulcerations % of protection with respect to controls) was determined as 57%. Further, in series [1] (Rattus norvegicus, 25 mg/kg, read-out: Ulcerations % of protection with respect to controls), the inhibition in vivo at 25 mg/kg came out at 100%. Moreover, the entries for the “pH of gastric liquid, treated animals” value in series [1] (1 mg/kg), in series [1] (5 mg/kg) and in series [1] (25 mg/kg) were 3.0, 3.0 and 5.6, respectively. In series [2], the LD50 was around 200 mg/kg.
For `O=C(O)/C=C/C(=O)c1ccc(F)cc1` [Example 3, (E) 4-(4-fluorophenyl)-4-oxo-2-butenoic acid], in series [1] (setting [6]), the inhibition in vivo at 0.4 mg/kg was 20%. Moreover, the inhibition in vivo at 2 mg/kg in series [1] (setting [7]) was determined as 43%. The inhibition in vivo at 10 mg/kg in series [1] (setting [8]) was found to be 100%. In addition, the “pH of gastric liquid, treated animals” value in series [1] (0.4 mg/kg) came out at 3.1; in series [1] (2 mg/kg), 2.8; in series [1] (10 mg/kg), 4.0. Moreover, in series [2], the LD50 is around 300 mg/kg.
`O=C(O)/C=C/C(=O)c1ccc(Cl)c(Cl)c1` [Example 4, (E) 4-(3,4-dichlorophenyl)-4-oxo-2-butenoic acid]: the inhibition in vivo at 4 mg/kg in series [1] (setting [4]) was found to be 14%. The inhibition in vivo at 20 mg/kg in series [1] (setting [5]) is 71%. Also, the “pH of gastric liquid, treated animals” value was determined as 3.1 in series [1] (4 mg/kg) and 4.1 in series [1] (20 mg/kg). Moreover, the 50% lethal dose (LD50) in series [2] was around 500 mg/kg.
Turning to `O=C(O)/C=C/C(=O)c1ccccc1[N+](=O)[O-]` [Example 5, (E) 4-(2-nitrophenyl)-4-oxo-2-butenoic acid], the inhibition in vivo at 4 mg/kg in series [1] (setting [4]) amounted to 19%. For the same compound, the inhibition in vivo at 20 mg/kg in series [1] (setting [5]) is 100%. The “pH of gastric liquid, treated animals” value in series [1] (4 mg/kg) stood at 3.3; in series [1] (20 mg/kg), 4.3. Also, in series [2], the LD50 is around 500 mg/kg.
Take `O=C(O)/C=C/C(=O)c1ccc(C(F)(F)F)cc1` [Example 6, (E) 4-(4-trifluoromethylphenyl)-4-oxo-2-butenoic acid]: the inhibition in vivo at 0.8 mg/kg in series [1] (setting [3]) was found to be 20%. Moreover, the inhibition in vivo at 4 mg/kg in series [1] (setting [4]) is 55%. Moreover, in series [1] (setting [5]), the inhibition in vivo at 20 mg/kg came out at 67%. The inhibition in vivo at 100 mg/kg in series [1] (Rattus norvegicus, 100 mg/kg, read-out: Ulcerations % of protection with respect to controls) stood at 98%. The “pH of gastric liquid, treated animals” value in series [1] (0.8 mg/kg) was found to be 1.4; in series [1] (4 mg/kg), 2.3; in series [1] (20 mg/kg), 2.8; in series [1] (100 mg/kg), 6.3. In addition, the LD50 in series [2] was around 600 mg/kg.
On to `COc1ccc(OC)c(C(=O)/C=C/C(=O)O)c1` [Example 7, (E) 4-(2,5-dimethoxyphenyl)-4oxo-2-butenoic acid], for which the inhibition in vivo at 0.4 mg/kg in series [1] (setting [6]) was determined as 0%. For the same compound, the inhibition in vivo at 2 mg/kg in series [1] (setting [7]) came out at 93%. In addition, the inhibition in vivo at 10 mg/kg in series [1] (setting [8]) worked out at 88%. Also, the inhibition in vivo at 50 mg/kg in series [1] (setting [9]) stood at 100%. The “pH of gastric liquid, treated animals” value in series [1] (0.4 mg/kg) was found to be 3.0; in series [1] (2 mg/kg) it was 2.8; in series [1] (10 mg/kg), 3.0; in series [1] (50 mg/kg), 4.2. In series [2], this compound had an LD50 of around 300 mg/kg.
Take `O=C(O)/C=C/C(=O)c1ccc2c(c1)OCO2` [Example 8, (E) 4-(3,4-methylenedioxyphenyl)-4-oxo-2-butenoic acid]: in series [1] (setting [7]), the inhibition in vivo at 2 mg/kg was determined as 33%. Moreover, the inhibition in vivo at 10 mg/kg in series [1] (setting [8]) came out at 60%. In series [1] (setting [9]), the inhibition in vivo at 50 mg/kg came to 100%. Besides, the entries for the “pH of gastric liquid, treated animals” value in series [1] (2 mg/kg), in series [1] (10 mg/kg) and in series [1] (50 mg/kg) were 3.2, 3.3 and 5.4, respectively. This compound returned an LD50 in series [2] of around 400 mg/kg.
